Test results from patent US8133471B2, “CLK-peptide and SLK-peptide” (New York University, priority 2003, dated 2012).

What was measured:
[1] = system: Glioblastoma (GL261) cells; assay: GL261 glioblastoma cell adhesion to collagen type-IV; format: cell-based, murine
Protocol: FIG. 21 Effects of CLK-Peptide on Glioblastoma Cell Adhesion to Denatured Collagen Type-IV.
To assess the functional significance of the HUI77/CLK cryptic epitope, cell adhesion assays using a glioblastoma cell line were performed. Microtiter plates were coated with denatured collagen type-IV (10 μg/ml). Glioblastoma (GL261) cells were resuspended in adhesion buffer in the presence or absence of CLK-peptide or a non-specific control (CTW) peptide (50 μg/ml) and the […] were incubated in the coated wells for 30 minutes. Non-attached cells were removed by washing, and attached cells quantified by staining with crystal violet.

[2] = system: denatured collagen type-IV; assay: Solid phase ELISA, labeled CLK-peptide binding to denatured collagen type-IV
Protocol: (§1) FIG. 15 CLK-Peptide Reacts with a Cryptic Epitope in Collagen Type-IV In Vitro. Reactivity of biotin-labeled CLK-Peptide was assessed by solid phase ELISA. Reactivity was monitored by incubation with HRP-labeled streptavidin. […] All data was corrected for nonspecific binding of HRP-labeled streptavidin only. Data bars represent the mean optical density (O.D.)±standard deviation from triplicate wells. Assays were repeated 2 to 3 times with similar results.
(§2) The CLK-peptide was labeled with HRP and used in solid phase ELISA to assess differential binding to either native or denatured collagen type-IV. Microtiter plates were coated with either native or denatured collagen type-IV and HRP-labeled CLK-peptide was allowed to bind. […] In contrast, CLK-Peptide readily bound to denatured collagen type-IV. […] To determine whether this cryptic epitope was also exposed within the ECM in vivo, biotin-labeled CLK-peptide was used to stain M21 human melanoma tumors growing in nude mice (results shown in FIGS. 16A and B and described in Example 15).

GL261 glioblastoma cells = assay: GL261 proliferation, CLK-peptide combined with ionizing radiation; format: cell-based, murine; conditions: CLK-peptide 50 μg/ml + 5.0 Gy, 3 days, P<0.050, versus control
Protocol: FIG. 24 CLK-Peptide Enhances Radiosensitivity of […] Glioblastoma. Percent inhibition of tumor cell proliferation was quantitated in the presence or absence of CLK-Peptide, ionizing radiation, and a combination of the two.
Microtiter wells were coated with denatured collagen type-IV (10 μg/ml). GL261 cells were resuspended in proliferation buffer containing 1% serum in the presence or absence of a sub-optimal amount of CLK-peptide or control peptide (CTW) (50 μg/ml).
The cells were added to the coated wells and allowed to incubate for 1 hour, then either untreated or irradiated with a single fraction dose of ionizing radiation (5.0 Gy). A ^60Co source (Theratron) was used to deliver a single fraction of 5 Gy. The cells, on a 30 cm^2 field, were irradiated from a distance of 80 cm with a gantry angle of 180 degrees on a solid water phantom at 0.5 cm depth.
Tumor cells were allowed to proliferate for 3 days and proliferation was quantified by measuring the relative amount of mitochondrial dehydrogenase using a WST-1 tetrazolium salt cleavage assays kit (Chemicon).

Human melanoma cells M21 = assay: M21 melanoma cell adhesion to denatured collagen type-IV (Example 2); format: cell-based; conditions: M21 cells on denatured collagen type-IV; peptide 250 μg/ml
Description: FIG. 1 is a chart which illustrates M21 human melanoma cell adhesion to untreated denatured type-IV collagen (NT), CLK-peptide treated denatured collagen type-IV, SLK-peptide treated denatured collagen type-IV, and SDR-peptide treated denatured collagen type-IV.
SLK peptides bind to functional epitopes within denatured collagen type-IV that regulate cellular adhesion. Non-tissue culture treated 48-well plates were coated with denatured collagen type-IV. Human melanoma cells M21 (Scripps Research Institute, La Jolla, Calif.) were allowed to attach to the coated wells in the presence or absence of the synthetic peptides CLK, SLK, and SDR, each peptide was at a concentration of 250 μg/ml. SDR peptide is a commercially available peptide that was used as a control (QED Bioscience, Inc., San Diego, Calif.).
Human denatured collagen type-IV (25 μg/ml) was immobilized on 48-well nontissue culture treated plates. Wells were washed and incubated with 1% BSA (bovine serum albumin) in PBS (phosphate-buffered saline) for one hour at 37° C. Subconfluent […] were harvested, washed, and resuspended in adhesion buffer containing RPMI-1640 medium, 1 mM MgCl2, 0.2 mM MnCl2, and 0.5% BSA. […] Cell adhesion was quantified by measuring the optical density of eluted crystal violet at a wavelength of 600 nm.

[3] = system: intact triple helical collagen type-IV; assay: Solid phase ELISA, labeled CLK-peptide binding to native collagen type-IV
Protocol: as §1, §2

[4] = system: denatured collagen type-IV; assay: Competition ELISA, mAb HUIV26 or HUI77 binding to denatured collagen with or without CLK-peptide (Example 16); conditions: collagen coated at 10 μg/ml; 1:1 ratio
Protocol: FIG. 17 CLK-Peptide Binds to the HUI77 Cryptic Collagen Epitope. To examine the epitope bound by CLK, competition ELISAs were carried out. Microtiter wells were coated with denatured collagen type-IV (10 μg/ml), and mAb HUIV26 or HUI77 were allowed to bind the denatured collagen in the presence or absence of CLK-peptide.
ELISAs were performed to examine the binding specificity of CLK-Peptide. Denatured type-IV collagen (10 μg/ml) was coated on microtiter wells and CLK-peptide allowed to bind in the presence or absence of Mab HUI77 or Mab HUIV26 at a 1:1 ratio. HRP-labeled goat anti-mouse secondary antibodies were used to detect murine Mabs HUI77 and HUIV26, directed to distinct cryptic epitope within collagen type-IV, and the O.D. at 490 nm measured.

[5] = system: Metastatic B16 murine melanoma cells; assay: B16 melanoma cell adhesion to native or denatured collagen type-IV (Example 3); format: cell-based
Description: FIG. 2 is a chart which illustrates B16 murine melanoma cell adhesion to untreated denatured collagen type-IV (NT), CLK-peptide treated denatured collagen type-IV, and SHR-peptide treated denatured collagen type-IV.
Non-tissue culture treated 48-well plates were coated with either native (triple helical) or denatured collagen type-IV. Metastatic B16 murine melanoma cells were allowed to attach to the coated wells in the presence or absence of either CLK or SHR (control) peptide. CLK-peptide blockade of B16 cell adhesion to denatured type-IV collagen exceeded 95% (FIG. 2). CLK-peptide had little effect on B16 melanoma cell adhesion to native collagen type-IV.

## H-CLKQNGGNFSLG-OH [CLK-peptide, NH2-C-L-K-Q-N-G-G-N-F-S-L-G-COOH]
[1]; 50 μg/ml, 30 minutes
  inhibition of glioblastoma cell adhesion to denatured collagen type-IV: 90%
[1]; data not shown
  effect on glioblastoma cell adhesion to native intact collagen type-IV: no effect
[2]
  binding to denatured collagen type-IV: readily bound
GL261 glioblastoma cells
  increase of the antiproliferative effects of a sub-optimal dose of ionizing radiation: approximately 5 fold
Human melanoma cells M21
  blockade of melanoma cell adhesion: exceeded 95%
[3]
  binding to intact triple helical collagen type-IV: little if any binding
[4]
  blocking of mAb HUI77 binding to denatured collagen: significantly blocked
  blocking of mAb HUIV26 binding to denatured collagen: did not block
[5]; wells coated with denatured collagen type-IV
  blockade of B16 cell adhesion to denatured type-IV collagen: exceeded 95%
[5]; wells coated with native (triple helical) collagen type-IV
  effect on B16 melanoma cell adhesion to native collagen type-IV: little effect
